In paper PMC11979273, “A phase I study to evaluate the safety, tolerability, and pharmacokinetics of HEC113995PA·H2O, a novel dual-acting serotonergic antidepressant, in healthy subjects” (Frontiers in Pharmacology, 2025):

Assays:
5-HT1A receptor = target: T1, 5-HT1A receptor (Homo sapiens, UniProt P08908); experiment: 5-HT1A receptor agonism (EC50, EMAX); format: biochemical; settings: in vitro; unpublished data
T1 sequence (P08908 1-422): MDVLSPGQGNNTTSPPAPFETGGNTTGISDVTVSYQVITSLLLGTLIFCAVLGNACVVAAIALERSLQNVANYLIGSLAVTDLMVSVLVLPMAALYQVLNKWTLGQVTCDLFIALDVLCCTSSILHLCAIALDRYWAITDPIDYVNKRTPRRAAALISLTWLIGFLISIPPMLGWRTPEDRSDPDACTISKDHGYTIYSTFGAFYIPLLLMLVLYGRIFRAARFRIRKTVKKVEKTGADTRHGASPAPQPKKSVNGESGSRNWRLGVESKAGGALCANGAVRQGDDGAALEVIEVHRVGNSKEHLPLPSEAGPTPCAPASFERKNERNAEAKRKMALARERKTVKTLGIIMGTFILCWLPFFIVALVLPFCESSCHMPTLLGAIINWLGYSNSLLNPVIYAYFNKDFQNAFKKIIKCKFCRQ

[1] = test system: other subtypes of 5-HT receptors, histamine receptors, and acetylcholine receptors; experiment: In vitro affinities or activities to other receptors; format: binding
[2] = Food effect study, safety (adverse events); format: in vivo, human
Text: A total of 18 healthy subjects of both genders, were assigned randomly to three sequences A, B, and C (n = 6). All subjects received HEC113995PA·H2O tablets, with a total of 3 times administered during the trial, once per cycle, and a washout period of ≥11 days. In sequence A, the order of administration was as follows: fasting, after a standard meal, and after a high-fat meal. In sequence B, the order of administration was after a standard meal, after a high-fat meal, and fasting. Sequence C subjects were administered in the following order: after a high-fat meal, fasting, and after a standard meal. During the fed periods, a single oral dose of HEC113995PA·H2O tablet 20 mg was administered within 30 min after consumption of a standard meal (total calories: approximately 600 kcal), or a high-fat, high-calorie meal (total calories: approximately 800 kcal–1,000 kcal, which derives about 150, 250, and 500–600 kcal from protein, carbohydrate, and fat, respectively). Serial blood samples were collected before and after each cycle for PK determination of plasma concentration and the evaluation of pharmacokinetic characteristics. Safety and tolerability were assessed on days 4 and 28.
Safety indicators were assessed through adverse events (AE), clinical laboratory tests (including blood routine, blood biochemistry, urine routine), vital signs monitoring (ear temperature), pulse, respiration and blood pressure in a sitting position), 12-lead electrocardiogram (ECG) and physical examinations. Adverse events (AE) and serious adverse events (SAE) were evaluated following the criteria outlined in National Cancer Institute Common Terminology Criteria for Adverse Events (NCI-CTCAE) version 5.0.
Any adverse events that occurred in all subjects during the clinical trial were recorded with the following details: AE name, occurrence time, end time, severity, whether it was classified as a SAE, severity criteria (if applicable), treatment measures and outcomes, actions taken on investigational drug due to the AE, and the causal relationship between the AE and administrated drug, etc. Each AE was recorded separately.

Hygroscopicity = format: physicochemical; settings: solid
[3] = FE trial 20 mg, 1 case, after a high-fat meal
[4] = FE trial 20 mg, after a high-fat meal
[5] = FE trial 20 mg, after a high-fat meal, 5 incidents
[6] = FE trial 20 mg, after a standard meal
[7] = FE trial 20 mg, fasting conditions
[8] = FE trial 20 mg, overall, 2 cases

Structure (SMILES): Cc1nc(-c2cnc(N3CCN(CCCc4c[nH]c5ccc(C#N)cc45)CC3)nc2)sc1C(N)=O [HEC113995PA·H2O]
- 5-HT1A receptor activity relative to Vortioxetine (5-HT1A receptor): comparable activity
- activity in agonizing 5-HT1A receptor relative to HEC61139 (Vilazodone) (5-HT1A receptor): slightly weaker activity
- higher affinities towards SERT and the 5-HT1A receptor than other receptors ([1]; in vitro selectivity): over 100 fold
- in vitro affinities or activities to other receptors ([1]; other 5-HT receptor subtypes, histamine and acetylcholine receptors, unpublished data): at the micromolar level
- safety and tolerability ([2]; 20 mg fasting, after a standard meal and after a high-fat meal): good safety and tolerability
- TRAE incidence: elevated blood bilirubin [2, 3]: 5.6%
- TRAE incidence: elevated conjugated bilirubin [2, 3]: 5.6%
- TRAE: elevated blood triglycerides [2, 4]: 1 case
- TRAE: elevated blood uric acid [2, 4]: 2 cases
- TRAE: nausea [2, 4]: 1 case
- TEAE incidence [2, 5]: 27.8%
- TRAE incidence [2, 5]: 27.8%
- TRAE: elevated blood uric acid [2, 6]: 2 cases
- TRAE: nausea [2, 6]: 1 case
- TRAE incidence ([2]; FE trial 20 mg, after a standard meal, 3 incidents): 16.7%
- TEAE incidence ([2]; FE trial 20 mg, after a standard meal, 4 incidents): 22.2%
- TEAE incidents ([2]; FE trial 20 mg, fasting administration): 6 incidents
- TRAE incidence ([2]; FE trial 20 mg, fasting administration, 4 incidents): 22.2%
- TRAE: elevated blood triglycerides [2, 7]: 1 case
- TRAE: elevated blood uric acid [2, 7]: 1 case
- TRAE: nausea [2, 7]: 2 cases
- TRAE incidence: elevated blood triglycerides [2, 8]: 11.1%
- TRAE incidence: nausea [2, 8]: 11.1%
- TRAE incidence: elevated blood uric acid ([2]; FE trial 20 mg, overall, 4 cases): 22.2%
- incidence of subjects experiencing TRAEs ([2]; FE trial 20 mg, overall, 9 subjects, 13 TRAEs): 50.0%
- incidence of subjects experiencing TEAE ([2]; FE trial 20 mg, overall, 11 subjects, 20 incidents): 61.1%
- severity of all TRAEs ([2]; FE trial 20 mg, resolved spontaneously without treatment): Grade 1
- hygroscopicity (Hygroscopicity): slight hygroscopicity
